# Results from publication PMC8962522, “Direct interaction of TrkA/CD44v3 is essential for NGF-promoted aggressiveness of breast cancer cells” (Journal of Experimental & Clinical Cancer Research : CR, 2022).
# “Also recorded” adds a separate entry of the source.
# Key:
# [1] = system: CD44v3 (CD44v3-His, whole cell extracts of COS-7 cells expressing CD44v3); experiment: MST binding of NGF, TrkA or FGF to CD44v3; conditions: whole cell extracts of COS-7 expressing CD44v3, NGF alone, TrkA alone or FGF control
# Method: MST was conducted using an NT.115 A Pico MST instrument (Nano Temper Technologies GmbH) equipped with red and blue filter sets. The TrkA-His tagged extracellular domain protein (Ala 34-Gly423) (9966-TK-050; R&D Systems, United Kingdom), diluted to 200 nM in PBS-T buffer (supplied by the vendor), was labeled using a Monolith His-Tag Labeling Kit with RED-Tris-NTA (Nano Temper). The RED-Tris-NTA dye was diluted in PBS-T to 100 nM. The mix was incubated at RT in the dark for 30 min. Next, an extract expressing CD44v3-labeled protein (CD44v3-His) and ligand and/or TrkA was mixed at a 1:1 ratio and incubated at RT in the dark for 15 min. For the binding check, peptides and TrkA-His were used. Capillaries were filled individually and loaded into the instrument. The data were acquired using high MST power and 100% LED. The data were analyzed using MO Control Software (Nano Temper).
# Fig. 1 The C-terminal region of CD44 variant 3 binds to TrkA. A Schematic representation of the CD44 gene and protein structure. Alternative splicing leads to the expression of CD44 variants, thus the insertion of exon 8 leads to the expression of a CD44 protein containing variant 3 (CD44v3) and the insertion of exon 11 leads to the expression of a CD44 containing variant 6 (CD44v6) (B) TrkA/CD44v3 complex formation in COS-7 cells expressing TrkA and CD44v3 was detected by the proximity ligation assay (PLA), which was performed 0, 5 and 30 min after the initiation of NGF (100 ng/ml) treatment. The images represent signals detected by PLA. Quantification of the red spots was performed by ImageJ software (30 randomly chosen fields per condition of three different experiments). Statistical analyses were performed using one-way ANOVA followed by Bonferroni’s posttest. Error bars represent the standard error of the mean (S.E.M.); *** p < 0.001. ns, nonsignificant. C NGF and/or TrkA binding to CD44v3 was measured by microscale thermophoresis (MST). MST experiments were performed on whole cell extracts of COS-7 cells expressing CD44v3. […]
# TrkA = experiment: nanoDSF peptide binding to TrkA; conditions: nanoscale differential scanning fluorimetry, Supplementary Fig. 6A & B
# Method: To block the TrkA-CD44v3 association, 4 mimetic peptides of CD44v3 were designed corresponding to zone 1 [(K) STSSNTISAG], zone 2 (WEPNEENEDE), zone 3 (RDRHLSFSGSG) and zone 4 (IDDDEDFISST) (Fig. 2F & G). The binding capacities of the CD44v3 mimetic peptides to TrkA were then measured by MST (Fig. 2H). […] To confirm mimetic peptide 4 binding, we assessed its ability to bind TrkA using nanoscale differential scanning fluorimetry (nanoDSF; Supplementary Fig. 6A & B).
# Supplementary file 13046_2022_2314_MOESM3_ESM.pdf: Additional file 3: Supplementary Figure 1. Validation of the ectopic expression of CD44 and/or TrkA in COS-7 cells. The expression of all CD44 isoforms (A), CD44 variant 3 (B), CD44 variant 6 (C) and TrkA ([…]; D) was evaluated by RT–qPCR (normalized using PUM-1). No expression of CD44, CD44 variants [3 or 6] or TrkA was detected in COS-7 cells (A-D) compared with that in cells transfected with the expression plasmid carrying each protein. […] Quantification of the PLA results was performed using ImageJ software (30 randomly chosen fields per condition of three different experiments). […] CD44v3 and CD44v6 levels at the plasma membrane were assessed by flow cytometry (A-D). The plasma membrane and total TrkA and CD44v3 levels were also quantified by confocal microscopy (E-H). […] The CD44v3/NGF interaction was evaluated using microscale thermophoresis (MST). […]
binding to TrkA by nanoDSF (in words) (TrkA),binding to TrkA by nanoDSF (in words) (TrkA; listed as P4),Substance,binding to CD44v3 (in words) [1]
–,–,"NGF: recombinant human β-NGF (Alomone Labs, Israel)",No binding; also recorded: NGF did not bind to CD44v3; also recorded: NGF does not bind to CD44v3
bound TrkA,binds to TrkA,"IDDDEDFISST [Peptide 4, mimetic peptide 4 (…) corresponding to the C-terminal region of CD44v3]",–
